≈ marks a conversion by molar mass, not a printed value.
What was measured:
K. pneumoniae MXX1232 = assay: Antibacterial activity, MIC, resistant strain (Table 4); assay type: cell-based; settings: Klebsiella pneumoniae, MXX1232; resistant K. pneumoniae MMX1232, multi-drug resistant clinical isolate; read-out: MIC, MMX1232
In short: (§1)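 Values are MICs in μg/mL, read as the lowest compound concentration at which no growth is visible by eye. They come from a microbroth dilution method.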

A. baumannii MXX2240 = assay: as above; assay type: cell-based; settings: Acinetobacter baumannii, MXX2240; resistant A. baumannii MMX2240, multi-drug resistant clinical isolate; read-out: MIC, MMX2240
In short: as §1

E. coli LZ3111 = assay: Antibacterial activity, MIC, quinolone resistant strain (Table 2); assay type: cell-based; settings: Escherichia coli, LZ3111, read-out: MIC LZ3111
In short: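 MIC values (μg/mL) came from a microbroth dilution assay, scored as the lowest drug concentration at which no growth was visible by eye.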

[1] = system: Acinetobacter baumannii (A. baumannii) BAA747; assay: Antibacterial activity, MIC (Table 4); assay type: cell-based; settings: A. baumannii BAA747, read-out: MIC, BAA747
In short: as §1

[2] = system: Klebsiella pneumoniae (K. pneumoniae) 35657; assay: Antibacterial activity, MIC (Table 4); assay type: cell-based; settings: K. pneumoniae 35657, read-out: MIC, 35657
In short: as §1

[3] = system: Staphylococcus aureus (S. aureus) 29213; assay: Antibacterial activity, microbroth dilution MIC (Table 1); assay type: cell-based; settings: microbroth dilution, Gram-positive S. aureus 29213, read-out: MIC, 29213
In short: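 Potency is reported as minimum inhibitory concentration in μg/mL, determined by broth microdilution as the lowest level of compound that stops growth visible to the eye.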

[4] = system: Escherichia coli (E. coli) BAS849; assay: as above; assay type: cell-based; settings: microbroth dilution, super sensitive Gram-negative E. coli BAS849, read-out: MIC, BAS849
In short: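 Growth inhibition by microbroth dilution. MIC = lowest μg/mL with no visible growth. Strain 25922 is the control Gram-negative; BAS849 is hypersensitive.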

[5] = system: Pseudomonas aeruginosa (P. aeruginosa) 27853; assay: Antibacterial activity, MIC (Table 5); assay type: cell-based; settings: P. aeruginosa 27853, read-out: MIC, 27853
In short: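 Values are MICs in μg/mL, read as the lowest concentration at which no growth is visible by eye. They were determined by a microbroth dilution method.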

E. coli 25922 = assay: Antibacterial activity, microbroth dilution MIC (Table 1); assay type: cell-based, Escherichia coli; settings: Escherichia coli; microbroth dilution; control Gram-negative E. coli 25922 strain; read-out: MIC, 25922
In short: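 Values are MICs (μg/mL): the smallest drug amount at which macroscopically visible bacterial growth is absent under assay conditions, from a microdilution method in broth.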

Row | SMILES | MIC (K. pneumoniae MXX1232) [µg/mL] | MIC (A. baumannii MXX2240) [µg/mL] | MIC (E. coli LZ3111) [µg/mL] | MIC [1] [µg/mL] | MIC [2] [µg/mL] | MIC [3] [µg/mL] | MIC [4] [µg/mL] | MIC [5] [µg/mL] | MIC (E. coli 25922) [µg/mL]
1 | Cc1c(-c2ccc3cc[nH]c3n2)[nH]c(=O)c(C(=O)O)c1O [Cpd 434, 4-hydroxy-5-methyl-2-oxo-6-(1H-pyrrolo[2,3-b]pyridin-6-yl)-1,2-dihydropyridine-3-carboxylic acid] | 12.5 to 150 (≈ 43.8 to 526 µM) | 12.5 to 150 (≈ 43.8 to 526 µM) | 12.5 to 150 (≈ 43.8 to 526 µM) | 12.5 to 150 (≈ 43.8 to 526 µM) | 12.5 to 150 (≈ 43.8 to 526 µM) | 12.5 to 150 (≈ 43.8 to 526 µM) | 12.5 to 150 (≈ 43.8 to 526 µM) | 12.5 to 150 (≈ 43.8 to 526 µM) | 12.5 to 150 (≈ 43.8 to 526 µM)
2 | CCc1c(-c2ccc3c(ccn3-c3ccccc3)c2)[nH]c(=O)c(C(=O)O)c1O [Cpd 435, 5-ethyl-4-hydroxy-2-oxo-6-(1-phenyl-1H-indol-5-yl)-1,2-dihydropyridine-3-carboxylic acid] | 12.5 to 150 (≈ 33.4 to 401 µM) | 12.5 to 150 (≈ 33.4 to 401 µM) | 12.5 to 150 (≈ 33.4 to 401 µM) | 12.5 to 150 (≈ 33.4 to 401 µM) | 12.5 to 150 (≈ 33.4 to 401 µM) | < 1 | < 1 | 12.5 to 150 (≈ 33.4 to 401 µM) | 12.5 to 150 (≈ 33.4 to 401 µM)
3 | CCc1c(-c2ccc3c(ccn3-c3ccccn3)c2)[nH]c(=O)c(C(=O)O)c1O [Cpd 436, 5-ethyl-4-hydroxy-2-oxo-6-(1-(pyridin-2-yl)-1H-indol-5-yl)-1,2-dihydropyridine-3-carboxylic acid] | 12.5 to 150 (≈ 33.3 to 400 µM) | 12.5 to 150 (≈ 33.3 to 400 µM) | 12.5 to 150 (≈ 33.3 to 400 µM) | 12.5 to 150 (≈ 33.3 to 400 µM) | 12.5 to 150 (≈ 33.3 to 400 µM) | 1 to 3.5 (≈ 2.66 to 9.32 µM) | < 1 | 12.5 to 150 (≈ 33.3 to 400 µM) | 12.5 to 150 (≈ 33.3 to 400 µM)
4 | CCc1c(-c2ccc3c(ccn3-c3ccc(C(F)(F)F)cc3)c2)[nH]c(=O)c(C(=O)O)c1O [Cpd 437, 5-ethyl-4-hydroxy-2-oxo-6-(1-(4-(trifluoromethyl)phenyl)-1H-indol-5-yl)-1,2-dihydropyridine-3-carboxylic acid] | 12.5 to 150 (≈ 28.3 to 339 µM) | 12.5 to 150 (≈ 28.3 to 339 µM) | 12.5 to 150 (≈ 28.3 to 339 µM) | 12.5 to 150 (≈ 28.3 to 339 µM) | 12.5 to 150 (≈ 28.3 to 339 µM) | 3.5 to 12.5 (≈ 7.91 to 28.3 µM) | < 1 | 12.5 to 150 (≈ 28.3 to 339 µM) | 12.5 to 150 (≈ 28.3 to 339 µM)
5 | CCc1c(-c2ccc3c(ccn3-c3ccc(F)cc3)c2)[nH]c(=O)c(C(=O)O)c1O [Cpd 438, 5-ethyl-6-(1-(4-fluorophenyl)-1H-indol-5-yl)-4-hydroxy-2-oxo-1,2-dihydropyridine-3-carboxylic acid] | 12.5 to 150 (≈ 31.9 to 382 µM) | 12.5 to 150 (≈ 31.9 to 382 µM) | 12.5 to 150 (≈ 31.9 to 382 µM) | 12.5 to 150 (≈ 31.9 to 382 µM) | 12.5 to 150 (≈ 31.9 to 382 µM) | < 1 | < 1 | 12.5 to 150 (≈ 31.9 to 382 µM) | 12.5 to 150 (≈ 31.9 to 382 µM)
6 | CCc1c(-c2ccc3c(ccn3-c3cccc(N4CCCC4)c3)c2)[nH]c(=O)c(C(=O)O)c1O [Cpd 439, 5-ethyl-4-hydroxy-2-oxo-6-(1-(3-(pyrrolidin-1-yl)phenyl)-1H-indol-5-yl)-1,2-dihydropyridine-3-carboxylic acid] | 12.5 to 150 (≈ 28.2 to 338 µM) | 12.5 to 150 (≈ 28.2 to 338 µM) | 12.5 to 150 (≈ 28.2 to 338 µM) | 12.5 to 150 (≈ 28.2 to 338 µM) | 12.5 to 150 (≈ 28.2 to 338 µM) | 3.5 to 12.5 (≈ 7.89 to 28.2 µM) | 1 to 3.5 (≈ 2.25 to 7.89 µM) | 12.5 to 150 (≈ 28.2 to 338 µM) | 12.5 to 150 (≈ 28.2 to 338 µM)
7 | CCc1c(-c2ccc3c(ccn3-c3ccc(N4CCCC4)cc3)c2)[nH]c(=O)c(C(=O)O)c1O [Cpd 440, 5-ethyl-4-hydroxy-2-oxo-6-(1-(4-(pyrrolidin-1-yl)phenyl)-1H-indol-5-yl)-1,2-dihydropyridine-3-carboxylic acid] | 12.5 to 150 (≈ 28.2 to 338 µM) | 12.5 to 150 (≈ 28.2 to 338 µM) | 12.5 to 150 (≈ 28.2 to 338 µM) | 12.5 to 150 (≈ 28.2 to 338 µM) | 12.5 to 150 (≈ 28.2 to 338 µM) | 12.5 to 150 (≈ 28.2 to 338 µM) | 12.5 to 150 (≈ 28.2 to 338 µM) | 12.5 to 150 (≈ 28.2 to 338 µM) | 12.5 to 150 (≈ 28.2 to 338 µM)
8 | CCc1c(-c2ccc3cc(CN(C)C)[nH]c3c2)[nH]c(=O)c(C(=O)O)c1O.Cl [Cpd 441, 6-(2-((dimethylamino)methyl)-1H-indol-6-yl)-5-ethyl-4-hydroxy-2-oxo-1,2-dihydropyridine-3-carboxylic acid hydrochloride] | 12.5 to 150 | 3.5 to 12.5 | 12.5 to 150 | 1 to 3.5 | < 1 | 1 to 3.5 | < 1 | 12.5 to 150 | < 1
